In publication PMC7457137, “An Integrated Pharmacokinetic Study of an Acanthopanax senticosus Extract Preparation by Combination of Virtual Screening, Systems Pharmacology, and Multi-Component Pharmacokinetics in Rats” (Frontiers in Pharmacology, 2020):

Columns and labels:
[1] = Stability of the compounds in rat plasma (LC-MS validation); format: in vitro ADME
Source text: According to the “Guidelines for non-clinical pharmacokinetics of drugs” issued by Centre for Drug Evaluation, National Medical Products Administration, China ([Guidelines for non-clinical pharmacokinetics of drugs, 2014]), the LC-MS method was validated by linearity, limits of detection (LOD), limits of quantification (LOQ), precision, accuracy, extraction recovery, matrix effect and stability of the 6 compounds in rat plasma. In brief, blank rat plasma was obtained from the other six rats. The standard mixture solution containing the 6 compounds (with the concentration of 1 mg/ml for each) was diluted with […] to prepare a series of working solution containing the 6 compounds (concentration level: 20, 50, 100, 250, 500 ng/ml and 1, 2.5, 5, 10, 25, 50, 100, 125 150, 200 μg/ml) and IS (2.5μg/ml). For calibration curve, 10 μl of the series of working solution containing the IS (2.5μg/ml) was added into 100 μl of blank plasma. Finally, 15 data points (2, 5, 10, 25, 50, 100, 250, 500 ng/ml and 1, 2.5, 5, 10, 12.5 15, 20 μg/ml) were used in the calibration curve linearity. Calibration curves were plotted by weighted linear regression of the peak area ratio of analyte to the IS against the related nominal concentration of the analyte. LOD and LOQ were defined as the detectable concentration at which the ratio of signal to noise was about 3 and 10, respectively ([Huang et al., 2019]). […] The extraction recovery and matrix effect were also assessed at the above-mentioned three concentration levels for the 6 ingredients in the spiked plasma samples ([Huang et al., 2019]). Stability was examined under the condition of setting un-treated plasma samples at ambient temperature for 6 h, and extracted plasma samples in auto-sampler for 10 h, as well as setting plasma samples for three freeze-thaw cycles and at −80°C for 15 days ([Guidelines for non-clinical pharmacokinetics of drugs, 2014]).

[2] = after ASEP; ref Fan et al., 2015; cited from earlier work
[3] = Multi-component PK in rats after i.v. administration of ASEP; format: in vivo, Sprague-Dawley rats
Protocol: The animal experiments were conducted in line with the Guide for the Care and Use of Laboratory Animals (published by the USA National Institutes of Health, NIH Publication no. 85-23, revised 1996), which were approved by the Animal Care and Use Committee of the College of Animal Science (College of Bee Science), Fujian Agriculture and Forestry University (Approval Number: […]2019004). […] All rats were acclimated to the facilities and environment for 7 days before the experiments. […] The gradient elution was carried out by the mobile phase water with 0.1% formic acid (A) and methanol (B). […] The column temperature and flow rate were at 35 °C and 0.5 ml/min, resepectively. 5 μl sample solution was injected for the HPLC-MS analysis. The electrospray ionization (ESI) source conditions were as follows: block heating temperature was kept at 400 °C; desolvation line temperature was set at 250 °C; dry gas (nitrogen) flow rate was kept at 15 L/min; and auxiliary gas (nitrogen) flow rate was 3 L/min. […] The plasma samples were separated by centrifugation, followed by storing at -20 °C before analysis. […] A DAS 3.0 software (Chinese Pharmacologic Society, Beijing, China) was used to calculate the noncompartmental PK parameters. All the results were presented as mean ± SD, and statistics analysis was done with a single-tailed Student's t test in the work.

insulin resistance = tested on: insulin resistance; parameters: method as in Kim et al., 2017; conditions: high-fat diet-fed mice; ref Kim et al., 2017; cited from earlier work
AKT = tested on: AKT; parameters: method as in Yang et al., 2018; conditions: down-regulates transcriptional activity of FoxO1; ref Yang et al., 2018; cited from earlier work
[4] = extracted plasma samples, 10h in auto-sampler vials, high spiked level (HQC, 8000-16000 ng/mL)
[5] = extracted plasma samples, 10h in auto-sampler vials, low spiked level (LQC, 5-30 ng/mL)
[6] = extracted plasma samples, 10h in auto-sampler vials, middle spiked level (MQC, 400-1600 ng/mL)
[7] = rat plasma, 6h at room temperature, high spiked level (HQC, 8000-16000 ng/mL)
[8] = rat plasma, 6h at room temperature, low spiked level (LQC, 5-30 ng/mL)
[9] = rat plasma, 6h at room temperature, middle spiked level (MQC, 400-1600 ng/mL)
[10] = rat plasma, freeze-thaw stability (three cycles), high spiked level (HQC, 8000-16000 ng/mL)
[11] = rat plasma, freeze-thaw stability (three cycles), low spiked level (LQC, 5-30 ng/mL)
[12] = rat plasma, freeze-thaw stability (three cycles), middle spiked level (MQC, 400-1600 ng/mL)
[13] = rat plasma, long-term stability (-80℃,15 days), high spiked level (HQC, 8000-16000 ng/mL)
[14] = rat plasma, long-term stability (-80℃,15 days), low spiked level (LQC, 5-30 ng/mL)
[15] = rat plasma, long-term stability (-80℃,15 days), middle spiked level (MQC, 400-1600 ng/mL)
[16] = male, Sprague-Dawley, rat, in vivo, iv

## COc1cc(/C=C/CO)cc(OC)c1O[C@@H]1O[C@H](CO)[C@@H](O)[C@H](O)[C@H]1O [EB, eleutheroside B]
[1]; [4]
  Stability, RE: 1.92%
[1]; [5]
  Stability, RE: 12.12%
[1]; [6]
  Stability, RE: -0.97%
[1]; [7]
  Stability, RE: -4.48%
[1]; [8]
  Stability, RE: -5.59%
[1]; [9]
  Stability, RE: -14.91%
[1]; [10]
  Stability, RE: -4.14%
[1]; [11]
  Stability, RE: 4.10%
[1]; [12]
  Stability, RE: -0.75%
[1]; [13]
  Stability, RE: 6.11%
[1]; [14]
  Stability, RE: -8.20%
[1]; [15]
  Stability, RE: -4.54%
[2]
  PK profile in cerebral ischemia-reperfusion rats compared with the normal group: accumulated
[3]; PK time points 2.5, 5, 10, 15 and 20 min after single i.v. 3.52 ml/kg of 5 times concentrated ASEP, preliminary examination
  ingredient concentration in rat plasma: > 0.5 ng/mL
[3]; male, Sprague-Dawley, rat, in vivo, iv, 1.76 ml/kg, read-out: AUC0-t
  AUC(0-t): 3040 ng·h/mL
[3]; male, Sprague-Dawley, rat, in vivo, iv, 1.76 ml/kg, read-out: AUC0-∞
  AUC(0-inf): 3060 ng·h/mL
[3]; male, Sprague-Dawley, rat, in vivo, iv, 1.76 ml/kg, read-out: Cl (converted)
  clearance: 9.17 mL/min
[3]; male, Sprague-Dawley, rat, in vivo, iv, 1.76 ml/kg, read-out: MRT0-t
  MRT last: 26.4 min
[3]; male, Sprague-Dawley, rat, in vivo, iv, 1.76 ml/kg, read-out: MRT0-∞
  MRT inf: 31.2 ± 0.6 min
[3]; male, Sprague-Dawley, rat, in vivo, iv, 1.76 ml/kg, read-out: Vd
  Vd: 3.45 ± 0.1 L
[3]; male, Sprague-Dawley, rat, in vivo, iv, 1.76 ml/kg, read-out: t 1/2 (converted)
  half-life: 261 ± 6 min
[3]; male, Sprague-Dawley, rat, in vivo, iv, 3.52 ml/kg, read-out: AUC0-t
  AUC(0-t): 4530 ng·h/mL
[3]; male, Sprague-Dawley, rat, in vivo, iv, 3.52 ml/kg, read-out: AUC0-∞
  AUC(0-inf): 4540 ng·h/mL
[3]; male, Sprague-Dawley, rat, in vivo, iv, 3.52 ml/kg, read-out: Cl (converted)
  clearance: 12.3 mL/min
[3]; male, Sprague-Dawley, rat, in vivo, iv, 3.52 ml/kg, read-out: MRT0-t
  MRT last: 26.4 ± 0.6 min
[3]; male, Sprague-Dawley, rat, in vivo, iv, 3.52 ml/kg, read-out: MRT0-∞
  MRT inf: 30 ± 1.2 min
[3]; male, Sprague-Dawley, rat, in vivo, iv, 3.52 ml/kg, read-out: Vd
  Vd: 3.38 ± 1.15 L
[3]; male, Sprague-Dawley, rat, in vivo, iv, 3.52 ml/kg, read-out: t 1/2 (converted)
  half-life: 190 ± 65.4 min
[3]; male, Sprague-Dawley, rat, in vivo, iv, read-out: t 1/2 (elimination in rat blood)
  half-life: ≥ 190 min
Insulin resistance
  effect on insulin resistance: improve insulin resistance

## C=C[C@@H]1C2=CCOC(=O)C2=CO[C@H]1O[C@@H]1O[C@H](CO)[C@@H](O)[C@H](O)[C@H]1O [GPS, gentiopicroside]
[1]; [4]
  Stability, RE: -9.29%
[1]; [5]
  Stability, RE: 10.09%
[1]; [6]
  Stability, RE: 2.52%
[1]; [7]
  Stability, RE: -13.56%
[1]; [8]
  Stability, RE: -10.12%
[1]; [9]
  Stability, RE: -6.72%
[1]; [10]
  Stability, RE: -2.10%
[1]; [11]
  Stability, RE: 14.78%
[1]; [12]
  Stability, RE: 1.22%
[1]; [13]
  Stability, RE: 9.68%
[1]; [14]
  Stability, RE: 12.72%
[1]; [15]
  Stability, RE: 4.29%
AKT
  effect on phosphorylation of AKT: activate the phosphorylation of AKT
[3]; [16]
  AUC0-∞: 118.37 ± 6.75 ng·h/mL
  AUC(0-t): 108.95 ± 5.92 ng·h/mL
  Cl: 3.83 ± 0.23 L/h
  MRT0-t: 15.6 ± 0.6 min
  MRT0-∞: 21 ± 2.4 min
  Vd: 1.45 ± 0.16 L
  t 1/2: 15.6 ± 2.4 min
[3]; male, Sprague-Dawley, rat, in vivo, iv, AUC0-t
  AUC(0-t): 63.6 ± 2.53 ng·h/mL
[3]; male, Sprague-Dawley, rat, in vivo, iv, AUC0-∞
  AUC(0-inf): 68.2 ± 1.88 ng·h/mL
[3]; male, Sprague-Dawley, rat, in vivo, iv, Cl
  clearance: 55.3 mL/min
[3]; male, Sprague-Dawley, rat, in vivo, iv, MRT0-t
  MRT last: 21.6 ± 0.6 min
[3]; male, Sprague-Dawley, rat, in vivo, iv, MRT0-∞
  MRT inf: 25.2 ± 3 min
[3]; male, Sprague-Dawley, rat, in vivo, iv, Vd
  Vd: 1.08 ± 0.26 L
[3]; male, Sprague-Dawley, rat, in vivo, iv, t 1/2
  half-life: 13.8 ± 3.6 min
